ChEMBL document CHEMBL5512637, “Development of Membrane-Targeting Fluorescent 2-Phenyl-1H-phenanthro[9,10-d]imidazole-Antimicrobial Peptide Mimic Conjugates against Methicillin-Resistant Staphylococcus aureus” (J Med Chem, 2024)
The source made the active and inactive calls. No cut-off for these calls is given here.

Tests used:
Staphylococcus aureus [1] = assay: Disruption of cell membrane in methicillin-resistant Staphylococcus aureus clinical isolate M-4 assessed as increase in intracellular ROS level incubated for 1 hr by DCFH-DA dye based analysis; format: functional, organism-based; settings: dose 1-32 µg/ml
[2] = Toxicity in KM mouse assessed as change in urea level at 20 mg/kg, sc measured after 24 hrs; format: organism-based; settings: in vivo
Staphylococcus aureus [3] = assay: Disruption of cell membrane in methicillin-resistant Staphylococcus aureus clinical isolate M-4 assessed as DNA leakage at 1 to 8 times MIC incubated for 4 hrs by microspectrophotometry; format: functional, organism-based
Staphylococcus aureus [4] = assay: Antibacterial activity against methicillin-resistant Staphylococcus aureus clinical isolate M-4 infected in KM mouse assessed as survival rate of bacteria at 5 mg/kg, sc measured after 24 hrs relative to control; format: functional
Staphylococcus aureus [5] = assay: Antibacterial activity against methicillin-resistant Staphylococcus aureus clinical isolate M-3 incubated for 16 to 18 hrs CLSI based by microbroth dilution assay; format: functional; settings: time 16-18 hrs
[6] = Toxicity in KM mouse assessed as histological abnormality in kidney at 20 mg/kg, sc measured after 24 hrs by H and E staining based analysis; format: organism-based; settings: in vivo
Staphylococcus aureus [7] = assay: Antibacterial activity against methicillin-resistant Staphylococcus aureus clinical isolate M-8 incubated for 16 to 18 hrs CLSI based by microbroth dilution assay; format: functional; settings: time 16-18 hrs
Staphylococcus aureus [8] = assay: Antibacterial activity against Staphylococcus aureus ATCC 29213 at 1 ug/ml in absence of exogenous DNA; format: functional, organism-based; settings: dose 1.0 µg/ml
[9] = Toxicity in KM mouse assessed as change in WBC count at 20 mg/kg, sc measured after 24 hrs; format: organism-based; settings: in vivo
Staphylococcus aureus [10] = assay: Antibacterial activity against methicillin-resistant Staphylococcus aureus clinical isolate M-4 upto 128 ug/ml incubated for 16 to 18 hrs in presence of phosphatidylglycerol by broth dilution method; format: functional, organism-based; settings: dose <= 128.0 µg/ml, time 16-18 hrs
[11] = Binding affinity to phosphatidylglycerol (unknown origin) assessed as dissociation constant by ITC analysis
Staphylococcus aureus [12] = assay: Bactericidal activity against methicillin-resistant Staphylococcus aureus clinical isolate M-4 at 4 times MIC incubated for 6 hrs by time kill assay relative to control; format: functional
[13] = Toxicity in KM mouse infected with methicillin-resistant Staphylococcus aureus clinical isolate M-4 assessed as histopathological abnormality in kidneys at 5 to 10 mg/kg, sc measured after 24 hrs by H and E staining based analysis; format: organism-based; settings: in vivo, dose 5-10 mg/kg
[14] = Toxicity in KM mouse assessed as red swollen appearance of skin at administration site at 40 to 80 mg/kg, sc measured for 24 hrs; format: organism-based; settings: in vivo, dose 40-80 mg/kg
Staphylococcus aureus [15] = assay: Disruption of cell membrane in methicillin-resistant Staphylococcus aureus clinical isolate M-4 assessed as increase in red fluorescence incubated for 2 hrs by SYTO9/PI staining based flow cytometry; format: functional, organism-based; settings: dose 4-64 µg/ml
Staphylococcus aureus [16] = assay: Antibacterial activity against methicillin-resistant Staphylococcus aureus clinical isolate M-4 infected in KM mouse assessed as decrease in abnormality in skin area at 10 mg/kg, sc measured after 24 hrs by H and E staining based analysis; format: functional, organism-based
[17] = Toxicity in KM mouse assessed as histological abnormality in spleen at 20 mg/kg, sc measured after 24 hrs by H and E staining based analysis; format: organism-based; settings: in vivo
Staphylococcus aureus [18] = assay: Disruption of cell membrane in methicillin-resistant Staphylococcus aureus clinical isolate M-4 assessed as cell membrane rupture at 8 times MIC incubated for 1 hr by SEM analysis; format: functional, organism-based
Staphylococcus aureus [19] = assay: Antibacterial activity against methicillin-resistant Staphylococcus aureus clinical isolate M-1 incubated for 16 to 18 hrs CLSI based by microbroth dilution assay; format: functional; settings: time 16-18 hrs
Staphylococcus aureus [20] = assay: Bactericidal activity against Staphylococcus aureus ATCC 29213 at 8 times MIC incubated for 1 hr by time kill assay relative to control; format: functional
Staphylococcus aureus [21] = assay: Disruption of cell membrane in methicillin-resistant Staphylococcus aureus clinical isolate M-4 assessed as fold increase in fluorescence intensity at 32 ug/ml measured after 20 mins by DiSC3(5) dye based analysis relative to control; format: functional; settings: dose 32 µg/ml
Staphylococcus aureus [22] = assay: Bactericidal activity against methicillin-resistant Staphylococcus aureus clinical isolate M-4 at 8 times MIC incubated for 4 hrs by time kill assay relative to control; format: functional
[23] = Toxicity in KM mouse assessed as red swollen appearance of skin at administration site at 5 to 20 mg/kg, sc measured for 24 hrs; format: organism-based; settings: in vivo, dose 5-20 mg/kg
Staphylococcus aureus [24] = assay: Induction of resistance development in Staphylococcus aureus ATCC 29213 at MIC measured after 20 passages; format: functional
[25] = Toxicity in KM mouse infected with methicillin-resistant Staphylococcus aureus clinical isolate M-4 assessed as histopathological abnormality in lungs at 5 to 10 mg/kg, sc measured after 24 hrs by H and E staining based analysis; format: organism-based; settings: in vivo, dose 5-10 mg/kg
[26] = Toxicity in KM mouse assessed as histological abnormality in heart at 20 mg/kg, sc measured after 24 hrs by H and E staining based analysis; format: organism-based; settings: in vivo
[27] = Toxicity in KM mouse infected with methicillin-resistant Staphylococcus aureus clinical isolate M-4 assessed as histopathological abnormality in spleen at 5 to 10 mg/kg, sc measured after 24 hrs by H and E staining based analysis; format: organism-based; settings: in vivo, dose 5-10 mg/kg
[28] = Toxicity in KM mouse assessed as change in mean corpuscular volume at 20 mg/kg, sc measured after 24 hrs; format: organism-based; settings: in vivo
[29] = Cytotoxicity against human L02 cells assessed as cell survival at 16 ug/ml by MTT assay relative to control; format: toxicity, cell-based; settings: at 16 µg/mL, read-out: Survival
Staphylococcus aureus [30] = assay: Antibacterial activity against methicillin-resistant Staphylococcus aureus clinical isolate M-4 upto 128 ug/ml incubated for 16 to 18 hrs in presence of peptidoglycan by broth dilution method; format: functional, organism-based; settings: dose <= 128.0 µg/ml, time 16-18 hrs
Staphylococcus aureus [31] = assay: Antibacterial activity against methicillin-resistant Staphylococcus aureus clinical isolate M-5 incubated for 16 to 18 hrs CLSI based by microbroth dilution assay; format: functional; settings: time 16-18 hrs
Staphylococcus aureus [32] = assay: Disruption of cell membrane in methicillin-resistant Staphylococcus aureus clinical isolate M-4 assessed as increase in red fluorescence at 4 ug/ml incubated for 4 hrs by DAPI/PI staining based laser confocal microscopy; format: functional, organism-based; settings: dose 4.0 µg/ml
[33] = Toxicity in KM mouse assessed as change in platelet count at 20 mg/kg, sc measured after 24 hrs; format: organism-based; settings: in vivo
[34] = Toxicity in KM mouse assessed as change in RBC count at 20 mg/kg, sc measured after 24 hrs; format: organism-based, Erythrocyte; settings: in vivo
[35] = Toxicity in KM mouse assessed as survival rate at 5 to 80 mg/kg, sc measured for 24 hrs; format: organism-based; settings: in vivo, dose 5-80 mg/kg
Staphylococcus aureus [36] = assay: Disruption of cell membrane in methicillin-resistant Staphylococcus aureus clinical isolate M-4 assessed as fold increase in intracellular ROS level at 32 ug/ml incubated for 1 hr by DCFH-DA dye based analysis relative to control; format: functional; settings: dose 32 µg/ml
[37] = Toxicity in KM mouse infected with methicillin-resistant Staphylococcus aureus clinical isolate M-4 assessed as histopathological abnormality in heart at 5 to 10 mg/kg, sc measured after 24 hrs by H and E staining based analysis; format: organism-based; settings: in vivo, dose 5-10 mg/kg
Staphylococcus aureus [38] = assay: Bactericidal activity against methicillin-resistant Staphylococcus aureus clinical isolate M-4 by time kill assay; format: functional, organism-based

## CCCCCNC(=O)C[N+](C)(C)CCCCn1c(-c2ccc(N(C)C)cc2)nc2c3ccccc3c3ccccc3c21.[Br-]
Staphylococcus aureus [1]
  Activity: Dose-Dependent Effect
[2]
  Activity: Non-Toxic
Staphylococcus aureus [3]
  Activity: Active
Staphylococcus aureus [4]
  survival at 5 mg/kg: 0.42%
Staphylococcus aureus [5]
  MIC: 1 µg/mL
[6]
  Activity: Non-Toxic
Staphylococcus aureus [7]
  MIC: 0.5 µg/mL
Staphylococcus aureus [8]
  Activity: Active
[9]
  Activity: Non-Toxic
Staphylococcus aureus [10]
  Activity: inactive
[11]
  Kd: 39.8 µM
Staphylococcus aureus [12]
  Activity: 100%
[13]
  Activity: Non-Toxic
[14]
  Activity: Toxic
Staphylococcus aureus [15]
  Activity: Dose-Dependent Effect
Staphylococcus aureus [16]
  Activity: Active
[17]
  Activity: Non-Toxic
Staphylococcus aureus [18]
  Activity: Active
Staphylococcus aureus [19]
  MIC: 2 µg/mL
Staphylococcus aureus [20]
  Activity: 100%
Staphylococcus aureus [21]
  fold change (FC): ~5
Staphylococcus aureus [22]
  Activity: 100%
[23]
  Activity: Non-Toxic
Staphylococcus aureus [24]
  Activity: inactive
[25]
  Activity: Non-Toxic
[26]
  Activity: Non-Toxic
[27]
  Activity: Non-Toxic
[28]
  Activity: Non-Toxic
[29]
  viability at 16 ug/ml: 100%
Staphylococcus aureus [30]
  Activity: Active
Staphylococcus aureus [31]
  MIC: 2 µg/mL
Staphylococcus aureus [32]
  Activity: Active
[33]
  Activity: Non-Toxic
[34]
  Activity: Non-Toxic
[35]
  survival at 24 h: 100%
Staphylococcus aureus [36]
  fold change (FC): ~3
[37]
  Activity: Non-Toxic
Staphylococcus aureus [38]
  Activity: Dose-Dependent Effect
